Molecular target: T1, GCS enzyme contained within Golgi preparations isolated from human A375 malignant melanoma skin cells (Homo sapiens, UniProt Q16739)
T1 construct: endogenous levels of GCS enzyme contained within Golgi preparations isolated from human A375 malignant melanoma skin cells; endogenous in cells; host or cells: A375 human malignant melanoma cells (crude Golgi preparation)
T1 sequence (Q16739 1-394): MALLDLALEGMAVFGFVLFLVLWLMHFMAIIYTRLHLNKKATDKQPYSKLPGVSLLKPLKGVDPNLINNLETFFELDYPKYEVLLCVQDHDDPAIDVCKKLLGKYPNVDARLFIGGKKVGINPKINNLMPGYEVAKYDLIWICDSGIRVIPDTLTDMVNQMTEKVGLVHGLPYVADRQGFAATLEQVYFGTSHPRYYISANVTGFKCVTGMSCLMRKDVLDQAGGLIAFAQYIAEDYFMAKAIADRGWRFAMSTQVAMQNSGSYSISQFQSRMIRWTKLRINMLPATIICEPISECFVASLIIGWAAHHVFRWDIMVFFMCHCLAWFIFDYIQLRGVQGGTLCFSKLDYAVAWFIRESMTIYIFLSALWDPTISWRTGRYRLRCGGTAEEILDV
Assay: UDP-Glo glucosylceramide synthase biochemical assay
Details: crude Golgi preparation from A375 cells; C6 ceramide and UDP-glucose substrates; 20 h incubation at room temperature; UDP detected by luminescence
Method in brief: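 Endogenous enzyme in A375 Golgi preparations (1.5 μg total protein) was preincubated 30 min with compound, then reacted 20 h at room temperature with UDP-glucose and ceramide.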

Compound	EC50
CCOc1ccccc1C(=O)Nc1cccc2c1C(=O)N([C@@H](CO)C1CC1)C2 [Compound 102, (R)-N-(2-(1-cyclopropyl-2-hydroxyethyl)-3-oxoisoindolin-4-yl)-2-ethoxybenzamide]	260 nM
CC(C)(O)C(C1CC1)N1Cc2cccc(NC(=O)c3cccc(F)c3C(F)(F)F)c2C1=O (single isomer, unassigned) [Compound 116, (R or S)-N-(2-(1-cyclopropyl-2-hydroxy-2-methylpropyl)-3-oxoisoindolin-4-yl)-3-fluoro-2-(trifluoromethyl)benzamide]	3.1 nM
COc1cc(-c2cccc3c2C(=O)N([C@H](C2CC2)C(C)(C)O)C3)ccc1-c1nnc(C)o1 [Compound 67, (R)-2-(1-cyclopropyl-2-hydroxy-2-methylpropyl)-7-(3-methoxy-4-(5-methyl-1,3,4-oxadiazol-2-yl)phenyl)isoindolin-1-one]	12 nM
Cn1cc(-c2ccc(-c3ccc(Cl)c4c3C(=O)N([C@H](C3CC3)C(C)(C)O)C4)cc2)cn1 [Compound 37, (R)-4-chloro-2-(1-cyclopropyl-2-hydroxy-2-methylpropyl)-7-(4-(1-methyl-1H-pyrazol-4-yl)phenyl)isoindolin-1-one]	0.24 nM
Cc1ccc(-c2ccc(-c3cccc4c3C(=O)N(C(C3CC3)C(C)(C)O)C4)cc2)nn1 (racemic) [Compound 18, (R and S)-2-(1-cyclopropyl-2-hydroxy-2-methylpropyl)-7-(4-(6-methylpyridazin-3-yl)phenyl)isoindolin-1-one]	45 nM
Cc1nn(C)c2ccc(-c3ccc(F)c4c3C(=O)N([C@H](C3CC3)C(C)(C)O)C4)cc12 [Compound 56, (R)-2-(1-cyclopropyl-2-hydroxy-2-methylpropyl)-7-(1,3-dimethyl-1H-indazol-5-yl)-4-fluoroisoindolin-1-one]	0.43 nM
Cc1cc2c(c(NC(=O)c3ccnc4c3CCC4)c1)C(=O)N(CC1CC1)C2 [Compound 148, N-(2-(Cyclopropylmethyl)-6-methyl-3-oxoisoindolin-4-yl)-6,7-dihydro-5H-cyclopenta[b]pyridine-4-carboxamide]	500 nM
CCOc1ccccc1C(=O)Nc1cccc2c1C(=O)N([C@@H]1CCCC[C@@H]1O)C2 [Compound 103, 2-ethoxy-N-(2-((1R,2S)-2-hydroxycyclohexyl)-3-oxoisoindolin-4-yl)benzamide]	450 nM
COc1nccc(C(=O)Nc2cccc3c2C(=O)N(C(C2CC2)C(C)(C)O)C3)c1OC (single isomer, unassigned) [Compound 164, (R or S)-N-(2-(1-cyclopropyl-2-hydroxy-2-methylpropyl)-3-oxoisoindolin-4-yl)-2,3-dimethoxyisonicotinamide]	77 nM
Cc1noc(-c2ccc(-c3cccc4c3C(=O)N([C@H](C3CC3)C(C)(C)O)C4)cc2)n1 [Compound 78, (R)-2-(1-cyclopropyl-2-hydroxy-2-methylpropyl)-7-(4-(3-methyl-1,2,4-oxadiazol-5-yl)phenyl)isoindolin-1-one]	59 nM
O=C(Nc1cccc2c1C(=O)N(C(C1CC1)C1CC1)C2)c1ccc(F)c2c1CCC2=O [Compound 142, N-(2-(dicyclopropylmethyl)-3-oxoisoindolin-4-yl)-7-fluoro-1-oxo-2,3-dihydro-1H-indene-4-carboxamide]	140 nM
O=C(Nc1cccc2c1C(=O)N(C(C1CC1)C1CC1)C2)c1c(Cl)cnc2c1OCO2 [Compound 118, 6-chloro-N-(2-(dicyclopropylmethyl)-3-oxoisoindolin-4-yl)-[1,3]dioxolo[4,5-b]pyridine-7-carboxamide]	5.7 nM
COc1ncc(C)c(C(=O)Nc2cccc3c2C(=O)N(C(C2CC2)C(C)(C)O)C3)c1C (single isomer, unassigned) [Compound 153, (R or S)-N-(2-(1-cyclopropyl-2-hydroxy-2-methylpropyl)-3-oxoisoindolin-4-yl)-2-methoxy-3,5-dimethylisonicotinamide]	29 nM
CCOc1ccccc1C(=O)Nc1cccc2c1C(=O)N(CC1CC3CCN1CC3)C2 (racemic) [Compound 108, 2-Ethoxy-N-(3-oxo-2-(quinuclidin-2-ylmethyl)isoindolin-4-yl)benzamide]	270 nM
COC(C)(C)C(C1CC1)N1Cc2cccc(NC(=O)c3ccnc4c3CCC4)c2C1=O (single isomer, unassigned) [Compound 165, (R or S)-N-(2-(1-cyclopropyl-2-methoxy-2-methylpropyl)-3-oxoisoindolin-4-yl)-6,7-dihydro-5H-cyclopenta[b]pyridine-4-carboxamide]	200 nM
Cn1cc2c(C(=O)Nc3cccc4c3C(=O)N(C(C3CC3)C(C)(C)O)C4)cccc2n1 (single isomer, unassigned) [Compound 160, (R or S)-N-(2-(1-cyclopropyl-2-hydroxy-2-methylpropyl)-3-oxoisoindolin-4-yl)-2-methyl-2H-indazole-4-carboxamide]	5.9 nM
Cc1cnc2c(c1C(=O)Nc1cccc3c1C(=O)N([C@@H](C)C1CC1)C3)OCO2 [Compound 134, (S)-N-(2-(1-cyclopropylethyl)-3-oxoisoindolin-4-yl)-6-methyl-[1,3]dioxolo[4,5-b]pyridine-7-carboxamide]	59 nM
Cc1nnc(-c2ccc(-c3nccc4c3C(=O)N(C(C3CC3)C(C)(C)O)C4)cc2)o1 (single isomer, unassigned) [Compound 28, (R or S)-2-(1-cyclopropyl-2-hydroxy-2-methylpropyl)-4-(4-(5-methyl-1,3,4-oxadiazol-2-yl)phenyl)-1,2-dihydro-3H-pyrrolo[3,4-c]pyridin-3-one]	540 nM
CC(C)(O)C(C1CC1)N1Cc2cccc(OCc3c(Cl)cnc4c3OCO4)c2C1=O (single isomer, unassigned) [Compound 179, (R or S)-7-((6-chloro-[1,3]dioxolo[4,5-b]pyridin-7-yl)methoxy)-2-(1-cyclopropyl-2-hydroxy-2-methylpropyl)isoindolin-1-one]	16 nM
Cn1nc(C(F)(F)F)c2cc(-c3cccc4c3C(=O)N([C@H](C3CC3)C(C)(C)O)C4)ccc21 [Compound 80, (R)-2-(1-cyclopropyl-2-hydroxy-2-methylpropyl)-7-(1-methyl-3-(trifluoromethyl)-1H-indazol-5-yl)isoindolin-1-one]	0.39 nM
Cc1nnc(-c2cccc(-c3cccc4c3C(=O)N([C@H](C3CC3)C(C)(C)O)C4)c2)o1 [Compound 13, (R)-2-(1-cyclopropyl-2-hydroxy-2-methylpropyl)-7-(3-(5-methyl-1,3,4-oxadiazol-2-yl)phenyl)isoindolin-1-one]	260 nM
Cc1nc(-c2cccc(-c3cccc4c3C(=O)N([C@H](C3CC3)C(C)(C)O)C4)c2)no1 [Compound 81, (R)-2-(1-cyclopropyl-2-hydroxy-2-methylpropyl)-7-(3-(5-methyl-1,2,4-oxadiazol-3-yl)phenyl)isoindolin-1-one]	31 nM
CCOc1ncccc1C(=O)Nc1cccc2c1C(=O)N([C@H](C)C(C)(C)O)C2 [Compound 138, (R)-2-ethoxy-N-(2-(3-hydroxy-3-methylbutan-2-yl)-3-oxoisoindolin-4-yl)nicotinamide]	88 nM
Cc1nnc(-c2ccc(-c3cccc4c3C(=O)N(C(C3CC3)C3(O)COC3)C4)cc2)o1 (single isomer, unassigned) [Compound 51, (R or S)-2-(cyclopropyl(3-hydroxyoxetan-3-yl)methyl)-7-(4-(5-methyl-1,3,4-oxadiazol-2-yl)phenyl)isoindolin-1-one]	5.9 nM
CC(C)(O)C(C1CC1)N1Cc2cncc(NC(=O)c3ccnc4c3CCC4)c2C1=O (single isomer, unassigned) [Compound 151, (R or S)—N-(2-(1-Cyclopropyl-2-hydroxy-2-methylpropyl)-1-oxo-2,3-dihydro-1H-pyrrolo[3,4-c]pyridin-7-yl)-6,7-dihydro-5H-cyclopenta[b]pyridine-4-carboxamide]	61 nM
Cc1cc2c(c(-c3ccc(-c4nnc(C)o4)cc3)c1)C(=O)N([C@H](C1CC1)C(C)(C)O)C2 [Compound 61, (R)-2-(1-Cyclopropyl-2-hydroxy-2-methylpropyl)-5-methyl-7-(4-(5-methyl-1,3,4-oxadiazol-2-yl)phenyl)isoindolin-1-one]	8.9 nM
CC(C)(O)C(C1CC1)N1Cc2cccc(NC(=O)c3c(Cl)cnc4c3OCO4)c2C1=O (single isomer, unassigned) [Compound 157, (R or S)-6-chloro-N-(2-(1-cyclopropyl-2-hydroxy-2-methylpropyl)-3-oxoisoindolin-4-yl)-[1,3]dioxolo[4,5-b]pyridine-7-carboxamide]	0.49 nM
CN1C(=O)Cc2ccc(-c3cccc4c3C(=O)N([C@H](C3CC3)C(C)(C)O)C4)cc21 [Compound 84, (R)-6-(2-(1-cyclopropyl-2-hydroxy-2-methylpropyl)-3-oxoisoindolin-4-yl)-1-methylindolin-2-one]	4.8 nM
O=C(Nc1cccc2c1C(=O)N(CC1CC1)C2)c1ccnc2c1CCC2 [Compound 146, N-(2-(cyclopropylmethyl)-3-oxoisoindolin-4-yl)-6,7-dihydro-5H-cyclopenta[b]pyridine-4-carboxamide]	390 nM
Cc1nnc(-c2ccc(-c3cccc4c3C(=O)N([C@H](C3CC3)C(C)(C)O)C4)cn2)o1 [Compound 65, (R)-2-(1-cyclopropyl-2-hydroxy-2-methylpropyl)-7-(6-(5-methyl-1,3,4-oxadiazol-2-yl)pyridin-3-yl)isoindolin-1-one]	150 nM
